Source: patent publication US8394801B2, “Quinoxaline derivatives and their use for treating benign and malignant tumour disorders” (Aeterna Zentaris GmbH, priority 2009, dated 2013)

Columns and labels:
MESSA DX5 = assay: XTT proliferation test, doxorubicin-resistant MESSA Dx5; assay type: cell-based; settings: Homo sapiens, MES-SA/Dx5, doxorubicin-resistant cell line MESSA Dx5 (uterus)
From the text: (§1) For further characterization, the substances according to the invention were examined in resistant tumour cell lines compared to non-resistant wild-type tumour cell lines.
(§2) The cell lines examined are the cell line A2780 (ovary), the cis-platin-resistant cell line A2780 (ovary), the cell line L1210 (leukaemia), the vincristine-resistant cell line L1210 (leukaemia), the cell line MESSA (uterus), the doxorubicin-resistant cell line MESSA Dx5 (uterus), the cell line NCIH69 (lung) and the multi-drug-resistant cell line NCIH69 AR (lung).

TMM = assay: Proliferation assay (Alamar Blue / XTT), TMM; assay type: cell-based; settings: Homo sapiens; cell line TMM (leukaemia)
MDA-MB435 = assay: Proliferation assay (Alamar Blue / XTT), MDA-MB435; assay type: cell-based; settings: Homo sapiens, MDA-MB-435; cell line MDA-MBA435 (breast)
A549 = assay: Proliferation assay (Alamar Blue / XTT), A549; assay type: cell-based; settings: Homo sapiens; cell line A549 (lung)
NCI H69 = assay: XTT proliferation test, NCI H69; assay type: cell-based; settings: Homo sapiens, cell line NCIH69 (lung), non-resistant
From the text: as §1, §2

MOLT-16 = assay: Proliferation assay (Alamar Blue / XTT), MOLT-16; assay type: cell-based; settings: Homo sapiens; cell line MOLT-16 (leukaemia)
KB-HeLa = assay: Proliferation assay (Alamar Blue / XTT), KB-HeLa; assay type: cell-based; settings: Homo sapiens; cell line KB/HeLa (cervix)
MESSA = assay: XTT proliferation test, MESSA; assay type: cell-based; settings: Homo sapiens, MES-SA, cell line MESSA (uterus), non-resistant
From the text: as §1, §2

A2780 cis-Pt = assay: XTT proliferation test, cis-platin-resistant A2780; assay type: cell-based; settings: Homo sapiens, cis-platin-resistant cell line A2780 (ovary)
From the text: as §1, §2

L1210 = assay: XTT proliferation test, L1210; assay type: cell-based; settings: Mus musculus, cell line L1210 (leukaemia), non-resistant
From the text: as §1, §2

RS4, 11 = assay: Proliferation assay (Alamar Blue / XTT), RS4, 11; assay type: cell-based; settings: Homo sapiens; cell line RS4,11 (leukaemia)
LNCaP = assay: Proliferation assay (Alamar Blue / XTT), LNCaP; assay type: cell-based; settings: Homo sapiens; cell line LnCap (prostate)
HSB-2 = assay: Proliferation assay (Alamar Blue / XTT), HSB-2; assay type: cell-based; settings: Homo sapiens, HSB2; cell line HSB-2 (leukaemia)
L363 = assay: Proliferation assay (Alamar Blue / XTT), L363; assay type: cell-based; settings: Homo sapiens, L-363; cell line L363 (leukaemia)
NCI-H460 = assay: Proliferation assay (Alamar Blue / XTT), NCI-H460; assay type: cell-based; settings: Homo sapiens; cell line NCI-H460 (lung)
HCT116 = assay: Proliferation assay (Alamar Blue / XTT), HCT116; assay type: cell-based; settings: Homo sapiens; cell line HCT-116 (colon)
PC-3 = assay: Proliferation assay (Alamar Blue / XTT), PC-3; assay type: cell-based; settings: Homo sapiens, cell line PC3 (prostate)
SKOV-3 = assay: Proliferation assay (Alamar Blue / XTT), SKOV-3; assay type: cell-based; settings: Homo sapiens, SK-OV-3; cell line SKOV-3 (ovaries)
MOLT-3 = assay: Proliferation assay (Alamar Blue / XTT), MOLT-3; assay type: cell-based; settings: Homo sapiens; cell line MOLT-3 (leukaemia)
L1210 VCR = assay: XTT proliferation test, vincristine-resistant L1210; assay type: cell-based; settings: Mus musculus, vincristine-resistant cell line L1210 (leukaemia)
From the text: as §1, §2

RKOP27 = assay: Proliferation assay (Alamar Blue / XTT), RKOP27; assay type: cell-based; settings: Homo sapiens; cell line RKOp27 (colon)
MDA MB468 = assay: Proliferation assay (Alamar Blue / XTT), MDA MB468; assay type: cell-based; settings: Homo sapiens, MDA-MB-468; cell line MDA-MB468 (breast)
NCI H69 AR = assay: XTT proliferation test, multi-drug-resistant NCI H69 AR; assay type: cell-based; settings: Homo sapiens, NCI-H69AR, multi-drug-resistant cell line NCIH69 AR (lung)
From the text: as §1, §2

NALM-6 = assay: Proliferation assay (Alamar Blue / XTT), NALM-6; assay type: cell-based; settings: Homo sapiens; cell line NALM-6 (leukaemia)
A2780 = assay: XTT proliferation test, A2780; assay type: cell-based; settings: Homo sapiens, cell line A2780 (ovary), non-resistant
From the text: as §1, §2

U87MG = assay: Proliferation assay (Alamar Blue / XTT), U87MG; assay type: cell-based; settings: Homo sapiens, U-87 MG; cell line U87MG (glioma)
MCF-7 = assay: Proliferation assay (Alamar Blue / XTT), MCF-7; assay type: cell-based; settings: Homo sapiens, MCF7; cell line MCF-7 (breast)

EC50 (A549) [nM] | melting point [°C] | EC50 (A2780 cis-Pt) [nM] | EC50 (L1210) [nM] | EC50 (NCI-H460) [nM] | EC50 (HCT116) [nM] | EC50 (PC-3) [nM] | EC50 (SKOV-3) [nM] | EC50 (L1210 VCR) [nM] | EC50 (A2780) [nM] | EC50 (U87MG) [nM] | SMILES | EC50 (MESSA DX5) [nM] | EC50 (NCI H69) [nM] | EC50 (MESSA) [nM] | EC50 (RKOP27) [nM] | EC50 (MDA MB468) [nM] | EC50 (NCI H69 AR) [nM] | further results
29 | 280 to 283 | 0.5 | 2 | 47 | 24 | 28 | 40 | 4 | 0.3 | 10 | Cc1cc(-c2ccc3ncc(NC(=O)NC(C)C)nc3c2)cc(C)c1O [Compound 17, 1-[7-(4-Hydroxy-3,5-dimethylphenyl)quinoxalin-2-yl]-3-isopropylurea] | 139 | 27 | 152 | 26 | 39 | 86 | EC50 (TMM): 32 nM; EC50 (MDA-MB435): 18 nM; EC50 (MOLT-16): 56 nM; EC50 (KB-HeLa): 37 nM; EC50 (RS4, 11): 37 nM; EC50 (LNCaP): 40 nM; EC50 (HSB-2): 37 nM; EC50 (L363): 78 nM; EC50 (MOLT-3): 36 nM; EC50 (NALM-6): 54 nM; EC50 (MCF-7): 32 nM
8 | 243 to 244 | 14 | 15 | 27 | 7 | 11 | 30 | 19 | 18 | 2 | CCNC(=S)Nc1cnc2ccc(-c3cc(C)c(O)c(C)c3)cc2n1 [Compound 22, 1-Ethyl-3-[7-(4-hydroxy-3,5-dimethylphenyl)quinoxalin-2-yl]thiourea] | 38 | 10 | 141 | 28 | 53 | 8 | 
9 | 274 to 276 | 19 | 5 | 21 | 3 | 3 | 16 | 4 | 22 | 2 | Cc1cc(-c2ccc3ncc(NC(=S)NC4CC4)nc3c2)cc(C)c1O [Compound 23, 1-Cyclopropyl-3-[7-(4-hydroxy-3,5-dimethylphenyl)quinoxalin-2-yl]-thiourea] | 16 | 4 | 48 | 20 | 148 | 0.8 | 
